Experimental data as given in patent US11905272B1, “3-(2-(4-methoxypyridin-3-yl)-4,5-diphenyl-1H-imidazol-1-yl)-N,N-dimethylpropan-1-amine as an anti-cancer compound” (KING FAISAL UNIVERSITY, priority 2023, dated 2024).

Experiments:
[1] = test system: human osteosarcoma cells (MG-63); experiment: Assessment of cytotoxicity by SRB assay (MG-63); assay type: cell-based; conditions: 0.01 μM to 100 μM, 72 h
Procedure: (§1) The human prostate cancer cells (PC3) and human osteosarcoma cells (MG-63) were obtained from Nawah Scientific Inc. (Mokatam, Cairo, Egypt) and cultured in DMEM (Dulbecco's modified eagle's medium), Gibco, USA, supplemented with fetal bovine serum (FBS) at a concentration of 10% and 100 U/mL of penicillin and streptomycin (PS). The Cells were incubated at 37° C. in a humidified environment that contained 5% CO2.
(§2) Cells were seeded in 96-well plates as aliquots of 100 μL cell suspension and incubated in a complete media for 24 h. Afterward, cells were treated with 3-(2-(4-methoxypyridin-3-yl)-4,5-diphenyl-1H-imidazol-1-yl)-N,N-dimethylpropan-1-amine at diverse concentrations ranging from 0.01 μM to 100 μM for 72 h. Then, cells were fixed at 4° C. for one hour with 150 μL of 10% trichloroacetic acid (TCA). After washing the cells five times with distilled water, 70 μL of sulforhodamine (SRB) solution (0.4% w/v) was added and incubated for 10 min at room temperature in a dark place. […] Then, 150 μL of Tris pH 10.5 (10 mM) was added, and the absorbance was measured at 540 nm using a BMG LABTECH®-FLUOstar Omega microplate reader (Ortenberg, Germany). Half maximal inhibitory concentrations (IC50) values were calculated for each experiment using GraphPad Prism 6 software. […]
(§3) The inhibition was calculated using the following equation: Inhibition %=100−Average Viability

[2] = test system: human prostate cancer cells (PC3); experiment: Assessment of cytotoxicity by SRB assay (PC3); assay type: cell-based; conditions: 0.01 μM to 100 μM, 72 h
Procedure: as §1, §2, §3

melting point: 128 to 131 °C
SMILES: COc1ccncc1-c1nc(-c2ccccc2)c(-c2ccccc2)n1CCCN(C)C [3-(2-(4-methoxypyridin-3-yl)-4,5-diphenyl-1H-imidazol-1-yl)-N,N-dimethylpropan-1-amine]
antiproliferative activity against osteosarcoma (MG-63) cells [1]: excellent antiproliferative activities
antiproliferative activity against cancer cells (PC3) [2]: excellent antiproliferative activities
